Measurements from patent US9353090B2, “Heterocyclic carboxylic acids as activators of soluble guanylate cyclase” (Boehringer Ingelheim International GmbH, priority 2014, dated 2016).
Values after ≈ are worked out from the molar mass of the structure shown.

How the values were obtained:
[1] = Human liver microsome (HLM) metabolic stability assay; assay type: in vitro ADME; conditions: human liver microsomes
Outline: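 Remaining parent measured by LC/MS/MS (ESI, MRM) at 5, 15, 30 and 60 min relative to 0 min. Incubation: 1 uM compound, HLMs, NADPH-started, 37° C., 60 min total, single replicate. Slope of ln(% remaining) gives t1/2 = 0.693/slope, then CLint, CLh and % Qh.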

[2] = target: human soluble guanylate cyclase alpha 1 and beta 1 subunits (sGC) (Homo sapiens (Human), UniProt Q02108+Q02153); test: sGC cellular activator assay (cGMP, HTRF), in the presence and absence of 50% human serum; assay type: cell-based; conditions: CHO cells stably expressing human sGC alpha 1/beta 1, preincubated with 40 microM ODQ; cGMP by HTRF; Table 2 does not state whether with or without 50% human serum
Outline: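 First, CHO-sGC (human α1β1) cells get 1 h ODQ at 40 microM with IBMX and 0.1% BSA. Finally, cGMP is quantified by HTRF and EC50 computed.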

physchem = conditions: kinetic from dmso stock
[3] = pH 2.2, aqueous buffer, Solubility (pH 2.2)
[4] = pH 4.5, aqueous buffer, Solubility (pH 4.5)
[5] = pH 6.8, aqueous buffer, Solubility (pH 6.8)

Sequence of human soluble guanylate cyclase alpha 1 and beta 1 subunits (sGC) (Q02108 whole entry partner): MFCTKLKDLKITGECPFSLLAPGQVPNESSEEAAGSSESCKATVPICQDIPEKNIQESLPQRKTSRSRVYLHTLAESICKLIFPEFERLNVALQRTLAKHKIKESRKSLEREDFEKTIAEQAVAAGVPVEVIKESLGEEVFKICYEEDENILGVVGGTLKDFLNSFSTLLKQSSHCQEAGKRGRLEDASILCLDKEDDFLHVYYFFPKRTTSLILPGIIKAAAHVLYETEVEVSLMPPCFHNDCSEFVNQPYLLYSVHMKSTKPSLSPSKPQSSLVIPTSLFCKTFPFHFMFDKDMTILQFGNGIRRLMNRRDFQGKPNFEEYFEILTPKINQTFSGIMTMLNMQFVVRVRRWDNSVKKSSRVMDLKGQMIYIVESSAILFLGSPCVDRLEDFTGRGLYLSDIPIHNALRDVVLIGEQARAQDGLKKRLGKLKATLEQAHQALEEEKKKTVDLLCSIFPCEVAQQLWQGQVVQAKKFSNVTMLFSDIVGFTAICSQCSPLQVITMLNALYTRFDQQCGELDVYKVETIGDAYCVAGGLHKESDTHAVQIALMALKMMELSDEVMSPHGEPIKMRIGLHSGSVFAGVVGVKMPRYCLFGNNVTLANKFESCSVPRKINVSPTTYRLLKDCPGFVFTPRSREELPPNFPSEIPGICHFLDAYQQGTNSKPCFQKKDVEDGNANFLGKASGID
Sequence of human soluble guanylate cyclase alpha 1 and beta 1 subunits (sGC) (Q02153 whole entry): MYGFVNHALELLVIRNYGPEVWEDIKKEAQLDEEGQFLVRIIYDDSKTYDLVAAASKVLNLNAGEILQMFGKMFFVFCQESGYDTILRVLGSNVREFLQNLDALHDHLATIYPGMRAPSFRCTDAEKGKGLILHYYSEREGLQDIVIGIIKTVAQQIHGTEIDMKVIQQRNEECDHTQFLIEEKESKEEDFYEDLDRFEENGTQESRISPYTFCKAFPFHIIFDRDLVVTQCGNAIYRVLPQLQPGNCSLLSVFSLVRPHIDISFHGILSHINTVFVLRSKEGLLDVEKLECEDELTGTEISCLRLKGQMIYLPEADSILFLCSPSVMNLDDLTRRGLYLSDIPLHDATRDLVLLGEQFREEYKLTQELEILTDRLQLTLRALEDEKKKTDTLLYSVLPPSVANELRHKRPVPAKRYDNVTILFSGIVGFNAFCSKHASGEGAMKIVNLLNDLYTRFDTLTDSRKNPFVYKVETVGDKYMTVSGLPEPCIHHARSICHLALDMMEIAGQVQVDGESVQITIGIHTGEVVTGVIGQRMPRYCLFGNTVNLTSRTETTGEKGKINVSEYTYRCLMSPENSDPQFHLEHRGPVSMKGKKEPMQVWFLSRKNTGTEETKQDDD

Structure (SMILES) | Metabolic stability (Qh %), % hepatic blood flow [1] [%] | EC50 [2] [nM] | solubility at 24 h (physchem; [3]) [µg/mL] | solubility at 24 h (physchem; [4]) [µg/mL] | solubility at 24 h (physchem; [5]) [µg/mL]
CO[C@@H]1CN(c2nc(-c3cccc(C)c3OCc3ccc4c(c3C)CCN(C3CCOCC3)C4)cs2)CC[C@@H]1C(=O)O [Compound 173] | <24 | 21 | 120 (≈ 203 µM) | 71 (≈ 120 µM) | 75 (≈ 127 µM)
Cc1cccc(-c2csc(N3C[C@@H]4C[C@]4(C(=O)O)C3)n2)c1OCc1ccc2c(c1C)CCN(C1COC1)C2 [Compound 138] | <24 | 18 | 100 (≈ 188 µM) | 59 (≈ 111 µM) | 65 (≈ 122 µM)
Cc1cccc(-c2csc(N3CC[C@@]4(C(=O)O)C[C@H]4C3)n2)c1OCc1ccc2c(c1C)CCN(C1CCCOC1)C2 (some centres unmarked) [Compound 87] | 55 | 2 | 120 (≈ 209 µM) | 67 (≈ 117 µM) | 28 (≈ 48.8 µM)
COc1ccc(OCc2ccc3c(c2C)CCN(C2CCOCC2)C3)c(-c2csc(N3CC[C@@]4(C(=O)O)C[C@H]4C3)n2)c1 [Compound 200] | <24 | 25 | 130 (≈ 221 µM) | 43.6 (≈ 73.9 µM) | 10.5 (≈ 17.8 µM)
Cc1ccc(OCc2ccc3c(c2C)CCN(C2CCCOC2)C3)c(-c2csc(N3CC[C@@]4(C(=O)O)C[C@H]4C3)n2)c1 (some centres unmarked) [Compound 118] | 34 | 4 | 120 (≈ 209 µM) | 21 (≈ 36.6 µM) | < 0.1
COC[C@H]1N(c2cccc(-c3cccc(C)c3OCc3cc(F)c4c(c3)CCN(C3CCOCC3)CC4)n2)C[C@@H]2C[C@@]21C(=O)O [Compound 243] | <24 | 3 | 131 (≈ 212 µM) | 124 (≈ 201 µM) | 107 (≈ 174 µM)
COc1cc(COc2c(C)cccc2-c2csc(N3CC[C@H](C(=O)O)[C@H](OC)C3)n2)cc2c1CN(C1CCOCC1)CC2 [Compound 177] | <24 | 47 | 140 (≈ 230 µM) | 100 (≈ 165 µM) | 96 (≈ 158 µM)
CO[C@@H]1CN(c2nc(-c3cccc(Cl)c3OCc3ccc4c(c3C)CCN(C3CCOCC3)C4)cs2)CC[C@@H]1C(=O)O [Compound 208] | <24 | 16 | 139 (≈ 228 µM) | 88.9 (≈ 145 µM) | 77.1 (≈ 126 µM)
Cc1cccc(-c2cccc(N3C[C@@H]4C[C@]4(C(=O)O)C3)n2)c1OCc1ccc2c(c1)CCN(C1CCOCC1)C2 [Compound 20] | <24 | 21 | 110 (≈ 204 µM) | 96 (≈ 178 µM) | 64 (≈ 119 µM)
Cc1cccc(-c2csc(N3CC[C@@]4(C(=O)O)C[C@H]4C3)n2)c1OCc1ccc2c(c1C)CCN(C1CCOC1)C2 (some centres unmarked) [Compound 88] | 43 | 4 | 120 (≈ 214 µM) | 69 (≈ 123 µM) | 48 (≈ 85.8 µM)
CCc1cc(COc2c(C)cccc2-c2cccc(N3C[C@@H]4C[C@]4(C(=O)O)[C@H]3COC)n2)cc2c1CN(CC1COCCO1)CC2 (some centres unmarked) [Compound 56] | <24 | 26 | 140 (≈ 223 µM) | 120 (≈ 191 µM) | 88 (≈ 140 µM)
CO[C@H]1CN(c2cccc(-c3cccc(C)c3OCc3ccc4c(c3C)CCN(C3CCOCC3)CC4)n2)CC[C@@H]1C(=O)O [Compound 296] | <24 | 363 | 132 (≈ 219 µM) | 77.2 (≈ 129 µM) | 68.8 (≈ 115 µM)
CCO[C@@H]1CN(c2nc(-c3cccc(C)c3OCc3cc(OC)c4c(c3F)CCN(C3CCOCC3)C4)cs2)CC[C@@H]1C(=O)O [Compound 270] | 38 | 2 | 114 (≈ 179 µM) | 73.4 (≈ 115 µM) | 64 (≈ 100 µM)
COc1cc(COc2c(Cl)cccc2-c2csc(N3CC[C@@H](C(=O)O)[C@@H](OC)C3)n2)cc2c1CN(C1CCOCC1)CC2 [Compound 264] | <24 | 4 | 135 (≈ 215 µM) | 56.6 (≈ 90.1 µM) | 51.8 (≈ 82.5 µM)
Cc1cc(COc2c(C)cccc2-c2csc(N3CC[C@@]4(C(=O)O)C[C@H]4C3)n2)cc2c1CN(C1CCC(F)(F)CC1)CC2 [Compound 303] | 79 | 2 | 141 (≈ 232 µM) | 16.4 (≈ 27 µM) | 1 (≈ 1.65 µM)
COc1cc(COc2c(C)cccc2-c2csc(N3CC[C@@H](C(=O)O)[C@@H](OC)C3)n2)cc2c1CN(C1CCOCC1)CC2 [Compound 171] | <24 | 10 | 140 (≈ 230 µM) | 100 (≈ 165 µM) | 99 (≈ 163 µM)
COC[C@H]1N(c2cccc(-c3cccc(C)c3OCc3cc(C)c4c(c3F)CCN(C3CCOCC3)C4)n2)C[C@@H]2C[C@@]21C(=O)O [Compound 59] | <24 | 8 | 120 (≈ 195 µM) | 99 (≈ 161 µM) | 74 (≈ 120 µM)
COC[C@H]1N(c2cccc(-c3cccc(C)c3OCc3ccc4c(c3F)CCN(C3COC3)CC4)n2)C[C@@H]2C[C@@]21C(=O)O [Compound 263] | <24 | 7 | 122 (≈ 207 µM) | 82.8 (≈ 141 µM) | 54.4 (≈ 92.6 µM)
COc1ccc(OCc2ccc3c(c2C)CCN(C2COC2)C3)c(-c2csc(N3CC[C@@]4(C(=O)O)C[C@H]4C3)n2)c1 [Compound 201] | <24 | 40 | 132 (≈ 235 µM) | 10.1 (≈ 18 µM) | 19.5 (≈ 34.7 µM)
COC[C@H]1N(c2cccc(-c3cccc(C)c3OCc3cc(C#N)c4c(c3)CCN(C3CCOCC3)C4)n2)C[C@@H]2C[C@@]21C(=O)O [Compound 217] | 44 | 40 | 167 (≈ 274 µM) | 162 (≈ 266 µM) | 158 (≈ 259 µM)
CO[C@@H]1CN(c2cccc(-c3cccc(C)c3OCc3cc(C)c4c(c3)CCN(C3CCOCC3)C4)n2)CC[C@H]1C(=O)O [Compound 299] | 31 | 152 | 134 (≈ 229 µM) | 90.8 (≈ 155 µM) | 70.8 (≈ 121 µM)
COC[C@H]1N(c2cccc(-c3cccc(C)c3OCc3ccc4c(c3C)CN(C3CCOCC3)C4)n2)C[C@@H]2C[C@@]21C(=O)O [Compound 223] | <24 | 23 | 145 (≈ 248 µM) | 140 (≈ 239 µM) | 132 (≈ 226 µM)
Cc1ccc(OCc2ccc3c(c2C)CCN(C2COC2)CC3)c(-c2cccc(N3C[C@@H]4C[C@]4(C(=O)O)C3)n2)c1 [Compound 42] | 76 | 50 | 96 (≈ 178 µM) | 87 (≈ 161 µM) | 58 (≈ 107 µM)
COC[C@H]1N(c2cccc(-c3cccc(C)c3OCc3ccc4c(c3)CCN(C3CCOC3)C4)n2)C[C@@H]2C[C@@]21C(=O)O (mixture of isomers) [Compound 45] | <24 | 76 | 140 | 100 | 81
Cc1ccc(OCc2ccc3c(c2C)CCN(C2CCOCC2)C3)c(-c2csc(N3CC[C@@]4(C(=O)O)C[C@H]4C3)n2)c1 [Compound 115] | <24 | 11 | 130 (≈ 227 µM) | 36 (≈ 62.7 µM) | 5.1 (≈ 8.89 µM)
